Data published in the NIST ThermoML archive (doi:10.1021/je400536f).

Tests used:
[1] = mn = molality of the nth substance listed, in mol/kg; settings: 298.15 K, 100 kPa, Liquid, dip-type immersion conductivity cell
[2] = 298.15 K, 100 kPa, Liquid; for viscosity: Concentric cylinders viscometry; for mass density: Vibrating tube method

CCCC[N+](CCCC)(CCCC)CCCC.[O-][Cl+3]([O-])([O-])[O-] [tetrabutylammonium perchlorate] + C[N+](=O)[O-]
[1]
Settings	molar conductivity [S·m2/mol]
m1 = 0.000864	0.0101
m1 = 0.001347	0.0098
m1 = 0.001806	0.00954
m1 = 0.00243	0.00927
m1 = 0.002992	0.00899
m1 = 0.003528	0.00879
m1 = 0.004186	0.00854
m1 = 0.004998	0.00831
m1 = 0.005715	0.00809
m1 = 0.006642	0.00777
m1 = 0.007639	0.00753
m1 = 0.008668	0.00731

CCCC[N+](CCCC)(CCCC)CCCC.[O-][Cl+3]([O-])([O-])[O-] [tetrabutylammonium perchlorate] + NC=O
[1]
Settings	molar conductivity [S·m2/mol]
m1 = 0.000807	0.00312
m1 = 0.001498	0.0029
m1 = 0.002061	0.00278
m1 = 0.002673	0.00264
m1 = 0.003238	0.00255
m1 = 0.003856	0.00244
m1 = 0.004665	0.00231
m1 = 0.005242	0.00224
m1 = 0.006209	0.00212
m1 = 0.007157	0.00202
m1 = 0.00801	0.00196
m1 = 0.008612	0.00189

CCCC[N+](CCCC)(CCCC)CCCC.F[B-](F)(F)F [tetrabutylammonium tetrafluoroborate] + C[N+](=O)[O-]
[1]
Settings	molar conductivity [S·m2/mol]
m1 = 0.000773	0.00833
m1 = 0.001303	0.00794
m1 = 0.001731	0.00765
m1 = 0.002372	0.00735
m1 = 0.002927	0.00709
m1 = 0.003576	0.00684
m1 = 0.004134	0.0066
m1 = 0.004914	0.0064
m1 = 0.005655	0.00617
m1 = 0.006577	0.00594
m1 = 0.007569	0.00568
m1 = 0.008556	0.00543

C[N+](=O)[O-] [nitromethane]
[2]
Settings	mass density [kg/m3]	viscosity [mPa·s]
–	1130.15	0.62

CCCC[N+](CCCC)(CCCC)CCCC.[O-][Cl+3]([O-])([O-])[O-] [tetrabutylammonium perchlorate] + CNC=O
[1]
Settings	molar conductivity [S·m2/mol]
m1 = 0.000795	0.00449
m1 = 0.001513	0.00423
m1 = 0.002025	0.00407
m1 = 0.002735	0.00389
m1 = 0.003295	0.00371
m1 = 0.003956	0.00358
m1 = 0.004802	0.00342
m1 = 0.005388	0.00333
m1 = 0.006053	0.00323
m1 = 0.006823	0.00309
m1 = 0.007832	0.00293
m1 = 0.008798	0.00279

CCCC[N+](CCCC)(CCCC)CCCC.F[B-](F)(F)F [tetrabutylammonium tetrafluoroborate] + CNC=O
[1]
Settings	molar conductivity [S·m2/mol]
m1 = 0.000795	0.00352
m1 = 0.001513	0.00331
m1 = 0.002025	0.00314
m1 = 0.002735	0.00299
m1 = 0.003295	0.00286
m1 = 0.003956	0.00275
m1 = 0.004802	0.00262
m1 = 0.005388	0.00253
m1 = 0.006053	0.0024
m1 = 0.007327	0.00223
m1 = 0.007832	0.00216
m1 = 0.008798	0.00204

CCCC[N+](CCCC)(CCCC)CCCC.F[B-](F)(F)F [tetrabutylammonium tetrafluoroborate] + NC=O
[1]
Settings	molar conductivity [S·m2/mol]
m1 = 0.000829	0.00215
m1 = 0.001452	0.00203
m1 = 0.002025	0.00192
m1 = 0.002632	0.00183
m1 = 0.003181	0.00175
m1 = 0.003782	0.00167
m1 = 0.00457	0.00158
m1 = 0.005291	0.0015
m1 = 0.006131	0.00143
m1 = 0.007056	0.00134
m1 = 0.007921	0.00125
m1 = 0.008482	0.00119

NC=O [formamide]
[2]
Settings	mass density [kg/m3]	viscosity [mPa·s]
–	1129.22	3.3

CNC=O [N-methylformamide]
[2]
Settings	mass density [kg/m3]	viscosity [mPa·s]
–	997.61	1.65
